Tested on: X181 H1N1 Cal, X187 H3N2 Perth and B/Brisbane
Assay type: in vivo, Balb/c mice
Settings: adjuvant dose 100 μg, 20 μl

Question: `Cc1ccc2c(c1)nc(N)c1ncc(CCc3ccc(OCCOCCOCCC(F)(F)P(=O)(O)O)cc3C)cc12` [T1b] was tested. Which “immune response compared to both intradermal or intramuscular immunization using antigen alone” value did it give?
Answer: significantly improved immune response

— patent publication US9827190B2, “Intradermal delivery of immunological compositions comprising toll-like receptor 7 agonists” (GLAXOSMITHKLINE BIOLOGICALS SA, priority 2013, dated 2017)
